From ChEMBL document CHEMBL1201862, “PubChem BioAssay data set” (2004)
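How tested: cells in 96-well plates exposed to compound for 48 hours at five concentrations. GI50: concentration for 50% inhibition of growth.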 Activity calls are given as the source filed them. Cut-off read from the data, not from the text of the source: active = GI50 up to about 1.1 µM and inactive = higher.

Legend:
Assay in all cases: NCI-60 cell line screen, 48 h
DU-145 = tested on: DU-145
NCI-H522 = tested on: NCI-H522
HOP-62 = tested on: HOP-62
U-251 = tested on: U-251
HT-29 = tested on: HT-29
CCRF-CEM = tested on: CCRF-CEM
SK-MEL-28 = tested on: SK-MEL-28
MOLT-4 = tested on: MOLT-4
KM12 = tested on: KM12
UO-31 = tested on: UO-31
M14 = tested on: M14
786-0 = tested on: 786-0
Hs-578T = tested on: Hs-578T
RPMI-8226 = tested on: RPMI-8226
OVCAR-3 = tested on: OVCAR-3
TK-10 = tested on: TK-10
K562 = tested on: K562
SW-620 = tested on: SW-620
NCI-H23 = tested on: NCI-H23
A549 = tested on: A549
EKVX = tested on: EKVX
NCI/ADR-RES = tested on: NCI/ADR-RES
NCI-H226 = tested on: NCI-H226
MDA-MB-231 = tested on: MDA-MB-231
SF-539 = tested on: SF-539
SK-MEL-2 = tested on: SK-MEL-2
RXF 393 = tested on: RXF 393
PC-3 = tested on: PC-3
SN12C = tested on: SN12C
HCT-15 = tested on: HCT-15
SK-MEL-5 = tested on: SK-MEL-5
IGROV-1 = tested on: IGROV-1
CAKI-1 = tested on: CAKI-1
SNB-75 = tested on: SNB-75
MDA-N = tested on: MDA-N
COLO 205 = tested on: COLO 205
UACC-62 = tested on: UACC-62
OVCAR-4 = tested on: OVCAR-4
SF-268 = tested on: SF-268
OVCAR-5 = tested on: OVCAR-5
BT-549 = tested on: BT-549
MDA-MB-435 = tested on: MDA-MB-435
LOX IMVI = tested on: LOX IMVI
MCF7 = tested on: MCF7
T47D = tested on: T47D
Malme-3M = tested on: Malme-3M
HCT-116 = tested on: HCT-116
OVCAR-8 = tested on: OVCAR-8
SK-OV-3 = tested on: SK-OV-3
SF-295 = tested on: SF-295
SNB-19 = tested on: SNB-19
HCC 2998 = tested on: HCC 2998
ACHN = tested on: ACHN
NCI-H460 = tested on: NCI-H460
UACC-257 = tested on: UACC-257
A498 = tested on: A498
SR = tested on: SR
HL-60 = tested on: HL-60
HOP-92 = tested on: HOP-92

O=C1NC(=S)N/C1=C\c1cccs1
GI50 (DU-145): > 100 µM (inactive)
GI50 (NCI-H522): > 100 µM (inactive)
GI50 (HOP-62): > 100 µM (inactive)
GI50 (U-251): > 100 µM (inactive)
GI50 (HT-29): > 100 µM (inactive)
GI50 (CCRF-CEM): > 100 µM (inactive)
GI50 (SK-MEL-28): > 100 µM (inactive)
GI50 (MOLT-4): > 100 µM (inactive)
GI50 (KM12): > 100 µM (inactive)
GI50 (UO-31): > 100 µM (inactive)
GI50 (M14): > 100 µM (inactive)
GI50 (786-0): > 100 µM (inactive)
GI50 (Hs-578T): > 100 µM (inactive)
GI50 (RPMI-8226): > 100 µM (inactive)
GI50 (OVCAR-3): > 100 µM (inactive)
GI50 (TK-10): > 100 µM (inactive)
GI50 (K562): > 100 µM (inactive)
GI50 (SW-620): > 100 µM (inactive)
GI50 (NCI-H23): > 100 µM (inactive)
GI50 (A549): > 100 µM (inactive)
GI50 (EKVX): > 100 µM (inactive)
GI50 (NCI/ADR-RES): > 100 µM (inactive)
GI50 (NCI-H226): > 100 µM (inactive)
GI50 (MDA-MB-231): > 100 µM (inactive)
GI50 (SF-539): > 100 µM (inactive)
GI50 (SK-MEL-2): > 100 µM (inactive)
GI50 (RXF 393): > 100 µM (inactive)
GI50 (PC-3): > 100 µM (inactive)
GI50 (SN12C): > 100 µM (inactive)
GI50 (HCT-15): > 100 µM
GI50 (SK-MEL-5): > 100 µM (inactive)
GI50 (IGROV-1): > 100 µM (inactive)
GI50 (CAKI-1): > 100 µM (inactive)
GI50 (SNB-75): > 100 µM (inactive)
GI50 (MDA-N): > 100 µM (inactive)
GI50 (COLO 205): > 100 µM (inactive)
GI50 (UACC-62): > 100 µM (inactive)
GI50 (OVCAR-4): > 100 µM (inactive)
GI50 (SF-268): > 100 µM (inactive)
GI50 (OVCAR-5): > 100 µM (inactive)
GI50 (BT-549): > 100 µM (inactive)
GI50 (MDA-MB-435): > 100 µM (inactive)
GI50 (LOX IMVI): > 100 µM (inactive)
GI50 (MCF7): > 100 µM (inactive)
GI50 (T47D): 73.1 µM (inactive)
GI50 (Malme-3M): > 100 µM (inactive)
GI50 (HCT-116): > 100 µM (inactive)
GI50 (OVCAR-8): > 100 µM (inactive)
GI50 (SK-OV-3): > 100 µM (inactive)
GI50 (SF-295): > 100 µM (inactive)
GI50 (SNB-19): > 100 µM (inactive)
GI50 (HCC 2998): > 100 µM (inactive)

COc1ccc(CCn2ccc(C)n2)c(OC)c1
GI50 (DU-145): > 100 µM (inactive)
GI50 (HOP-62): > 100 µM (inactive)
GI50 (ACHN): > 100 µM (inactive)
GI50 (U-251): > 100 µM (inactive)
GI50 (HT-29): > 100 µM (inactive)
GI50 (CCRF-CEM): > 100 µM (inactive)
GI50 (SK-MEL-28): > 100 µM (inactive)
GI50 (MOLT-4): > 100 µM (inactive)
GI50 (KM12): > 100 µM (inactive)
GI50 (UO-31): 46.6 µM (inactive)
GI50 (M14): > 100 µM (inactive)
GI50 (NCI-H460): > 100 µM (inactive)
GI50 (Hs-578T): > 100 µM (inactive)
GI50 (OVCAR-3): > 100 µM (inactive)
GI50 (TK-10): > 100 µM (inactive)
GI50 (K562): > 100 µM (inactive)
GI50 (SW-620): > 100 µM (inactive)
GI50 (NCI-H23): > 100 µM (inactive)
GI50 (A549): > 100 µM (inactive)
GI50 (EKVX): 47.2 µM (inactive)
GI50 (NCI/ADR-RES): 90.2 µM (inactive)
GI50 (MDA-MB-231): > 100 µM (inactive)
GI50 (SF-539): > 100 µM (inactive)
GI50 (RXF 393): > 100 µM (inactive)
GI50 (PC-3): > 100 µM (inactive)
GI50 (SN12C): 46 µM (inactive)
GI50 (HCT-15): > 100 µM
GI50 (SK-MEL-5): > 100 µM (inactive)
GI50 (IGROV-1): > 100 µM (inactive)
GI50 (CAKI-1): > 100 µM (inactive)
GI50 (SNB-75): 34 µM (inactive)
GI50 (MDA-N): > 100 µM (inactive)
GI50 (COLO 205): > 100 µM (inactive)
GI50 (UACC-257): > 100 µM (inactive)
GI50 (UACC-62): 90.8 µM (inactive)
GI50 (OVCAR-4): > 100 µM (inactive)
GI50 (SF-268): > 100 µM (inactive)
GI50 (OVCAR-5): > 100 µM (inactive)
GI50 (BT-549): > 100 µM (inactive)
GI50 (MDA-MB-435): > 100 µM (inactive)
GI50 (LOX IMVI): > 100 µM (inactive)
GI50 (MCF7): > 100 µM (inactive)
GI50 (T47D): 68.9 µM (inactive)
GI50 (Malme-3M): > 100 µM (inactive)
GI50 (HCT-116): > 100 µM (inactive)
GI50 (OVCAR-8): > 100 µM (inactive)
GI50 (SK-OV-3): > 100 µM (inactive)
GI50 (SF-295): > 100 µM (inactive)
GI50 (SNB-19): > 100 µM (inactive)

CC1C2CC(C(C3C(=O)C4CC3C(C)(C)C4C)C2=O)C1(C)C (stereo not given)
GI50 (DU-145): > 100 µM (inactive)
GI50 (A498): > 100 µM (inactive)
GI50 (NCI-H522): > 100 µM (inactive)
GI50 (HOP-62): > 100 µM (inactive)
GI50 (ACHN): > 100 µM (inactive)
GI50 (U-251): > 100 µM (inactive)
GI50 (HT-29): > 100 µM (inactive)
GI50 (CCRF-CEM): > 100 µM (inactive)
GI50 (SK-MEL-28): > 100 µM (inactive)
GI50 (MOLT-4): > 100 µM (inactive)
GI50 (KM12): > 100 µM (inactive)
GI50 (UO-31): > 100 µM (inactive)
GI50 (M14): > 100 µM (inactive)
GI50 (NCI-H460): > 100 µM (inactive)
GI50 (786-0): > 100 µM (inactive)
GI50 (Hs-578T): > 100 µM (inactive)
GI50 (OVCAR-3): > 100 µM (inactive)
GI50 (TK-10): > 100 µM (inactive)
GI50 (K562): > 100 µM (inactive)
GI50 (SW-620): > 100 µM (inactive)
GI50 (NCI-H23): > 100 µM (inactive)
GI50 (A549): > 100 µM (inactive)
GI50 (EKVX): > 100 µM (inactive)
GI50 (NCI-H226): > 100 µM (inactive)
GI50 (MDA-MB-231): > 100 µM (inactive)
GI50 (SF-539): > 100 µM (inactive)
GI50 (RXF 393): > 100 µM (inactive)
GI50 (PC-3): > 100 µM (inactive)
GI50 (SN12C): > 100 µM (inactive)
GI50 (SK-MEL-5): > 100 µM (inactive)
GI50 (IGROV-1): > 100 µM (inactive)
GI50 (CAKI-1): > 100 µM (inactive)
GI50 (SNB-75): > 100 µM (inactive)
GI50 (MDA-N): > 100 µM (inactive)
GI50 (SR): > 100 µM (inactive)
GI50 (COLO 205): > 100 µM (inactive)
GI50 (UACC-257): > 100 µM (inactive)
GI50 (UACC-62): > 100 µM (inactive)
GI50 (OVCAR-4): > 100 µM (inactive)
GI50 (SF-268): > 100 µM (inactive)
GI50 (OVCAR-5): > 100 µM (inactive)
GI50 (BT-549): > 100 µM (inactive)
GI50 (MDA-MB-435): > 100 µM (inactive)
GI50 (HL-60): > 100 µM (inactive)
GI50 (HOP-92): > 100 µM (inactive)
GI50 (MCF7): > 100 µM (inactive)
GI50 (T47D): > 100 µM (inactive)
GI50 (Malme-3M): > 100 µM (inactive)
GI50 (HCT-116): > 100 µM (inactive)
GI50 (OVCAR-8): > 100 µM (inactive)
GI50 (SK-OV-3): > 100 µM (inactive)
GI50 (SF-295): > 100 µM (inactive)
GI50 (SNB-19): > 100 µM (inactive)
GI50 (HCC 2998): > 100 µM (inactive)
